Data published in patent US5639884A, “Arylidene-heterocyclic derivatives and process for their preparation” (Farmitalia Carlo Erba S.r.l., priority 1991, dated 1997).

Biological target: p45 v-abl tyrosine kinase
Test: Exogenous Substrate Kinase Assay: p45 v-abl kinase inhibition
Type: biochemical, Abelson murine leukemia virus
Conditions: (Val^5)-Angiotensin II phosphorylation; 40 ng abl-kinase; peptide 2 mM, ATP 50 μM; pH 8.0, 30° C.; triplicate determinations
Text: Tyrosine kinase purification. The enzyme used in our test was the p45 v-abl tyrosine kinase which represents the catalytic domaine of the Abelson tyrosine kinase (isolated from the Abelson murine leukemia virus). The p45 v-abl kinase was produced and isolated as described by Wang et al. in J. Biol. Chem. 260, 64 (1985) and by Ferguson et al. in J. Biol. Chem. 260, 3652 (1985) and in Biochem. J. 257, 321 (1989).
Exogenous Substrate Kinase Assay. (Val^5)-Angiotensin II phosphorylation was performed by incubation with 40 ng of purified abl-kinase and (γ-^32 P)-ATP, in 50 μl of buffer containing Tris-HCl 25 mM, pH 8.0, MgCl2 10 mM and dithiothreitol 0.1 mM (kinase buffer). The reaction mixture was incubated for the indicated time at 30° C. and the reaction stopped by adding 50 μl of 5% trichloroacetic acid. After a brief incubation on ice, tubes were centrifuged. The supernatants were spotted on phosphocellulose paper squares (Whatman P-81) and washed extensively in acetic acid. The radioactivity bound to dried phosphocellulose squares was measured in a liquid scintillation counter. IC50 values were calculated from triplicate determinations of each experimental point. Each inhibitor was tested at concentrations ranging from […] in the presence of fixed concentrations of peptide (2 mM) and ATP (50 μM).

Compound | IC50 [µM]
O=C1NC(=O)c2ccccc2C1=Cc1ccnc2ccccc12 [4-(4'-quinolyl)methylenehomophthalimide, (E,Z) -4-(4'-quinolyl)-methylenehomophthalimide] | 15
O=S1(=O)Nc2ccccc2C1=Cc1c[nH]c2ccccc12 [(E,Z)-3-(3'-indolyl)methylene-2,1-benzisothiazoline-2,2-dioxide] | 113
O=S1(=O)Nc2ccccc2C1=Cc1ccc(O)cc1 [(E,Z)-3-(4'-hydroxyphenyl)methylene-2,1-benzisothiazoline-2,2-dioxide] | 17
O=C1NC(=O)c2ccccc2C1=Cc1ccc(O)cc1 [(E,Z)-4-(4'-hydroxyphenyl)methylenehomophthalimide] | 5
